Article PMC8037161 (International Journal of Molecular Sciences, 2021)
Where “and” joins values, the source holds several entries; their conditions need not be identical. Equal values may be shown once.

Assays:
pBR322 plasmid = experiment: Ethidium bromide assay, DNA-binding effect on plasmid pBR322; conditions: % fluorescence relative to controls
Source text: Fluorescence readings are reported as % fluorescence relative to the controls.

calf thymus DNA = experiment: Ethidium displacement assay, apparent binding constant, calf thymus DNA; conditions: apparent association constant, ± 0.2 × 10^5 M^−1
Experimental: (§1) The fluorescence of DNA solutions (calf thymus DNA, T4 coliphage DNA, poly(dA-dT)2 and poly(dG-dC)2 with the investigated compound (final concentrations 10, 50, 100 μM) was measured by fluorescence spectrophotometer Infinite M200 TECAN at room temperature according to the procedure described above. The determination of DNA-binding constants was described in previous articles. The apparent binding constant was calculated from KEtBr [EtBr] = Kapp [drug], where [drug] = the concentration of the tested compound at 50% reduction of fluorescence and KEtBr and [EtBr] are known. The results are reported as a percentage of fluorescence decreases in Table 1.

T4 coliphage DNA = experiment: Ethidium displacement assay, apparent binding constant, T4 coliphage DNA; conditions: apparent association constant, ± 0.2 × 10^5 M^−1
Source text: The values of binding constants in the range of 0.7–6.4 × 10^5 M^−1 for T4 coliphage DNA for derivatives 1–18 was evidence of their minor-groove selectivity, because the major groove of T4 coliphage DNA is blocked by a-glycosylation of the 5-(hydroxymethyl)cytidine residues. […] All of the compounds bound to AT-rich sequences weaker than netropsin but some of them bound stronger to GC-rich sequences, e.g., compounds 3, 6, and 10.
as §1

poly(dA-dT)2 = experiment: Ethidium displacement assay, apparent binding constant, poly(dA-dT)2; conditions: apparent association constant, ± 0.2 × 10^5 M^−1
Experimental: as §1

poly(dG-dC)2 = experiment: Ethidium displacement assay, apparent binding constant, poly(dG-dC)2; conditions: apparent association constant, ± 0.2 × 10^5 M^−1
Experimental: as §1

recombinant human DHFR = target: T1, recombinant human DHFR (Homo sapiens, UniProt P00374); experiment: Dihydrofolate reductase (DHFR) inhibition assay; type: biochemical; conditions: assay kit
T1 construct: purchased
T1 sequence (P00374 1-187): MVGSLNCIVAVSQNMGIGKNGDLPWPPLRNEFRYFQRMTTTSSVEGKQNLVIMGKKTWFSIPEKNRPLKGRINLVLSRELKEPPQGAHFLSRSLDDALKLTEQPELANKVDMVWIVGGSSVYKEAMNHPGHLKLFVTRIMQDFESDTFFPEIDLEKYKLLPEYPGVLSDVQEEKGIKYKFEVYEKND

[1] = system: poly(dA-dT)2 (DNA, polymer) AT; experiment: ethidium bromide displacement, fluorescence; conditions: apparent; room temperature; ethidium bromide displaced; compound 10, 50, 100 µM
[2] = system: poly(dG-dC)2 (DNA, polymer) GC; experiment: ethidium bromide displacement, fluorescence; conditions: apparent; room temperature; ethidium bromide displaced; compound 10, 50, 100 µM

Row | SMILES | Decrease of Fluorescence (pBR322 plasmid) | Kapp Calf Thymus DNA (calf thymus DNA) [M⁻¹] | Kapp T4 DNA (T4 coliphage DNA) [M⁻¹] | Kapp Poly (dA-dT)2 (poly(dA-dT)2) [M⁻¹] | Kapp poly (dG-dC)2 (poly(dG-dC)2) [M⁻¹] | IC50 (recombinant human DHFR) [µM] | Kapp [1] | Kapp [2]
1 | COc1cc(C(=O)Nc2ccc(N)c(I)c2)cc(OC)c1OC [Compound 1] | 74.54% | 300000 | 160000 | 310000 | 360000 | 21.89 ± 0.03 | 3.1 ± 0.2 × 10^5 M^−1 | 3.6 ± 0.2 × 10^5 M^−1
2 | COc1cc(C(=O)Nc2ccc(F)c(N)c2)cc(OC)c1OC [Compound 2] | 52.89% | 260000 | 260000 | 190000 | 300000 | 1.11 ± 0.02 | 1.9 ± 0.2 × 10^5 M^−1 | 3.0 ± 0.2 × 10^5 M^−1
3 | COc1cc(C(=O)Nc2cc(N)ccc2F)cc(OC)c1OC [Compound 3] | 68.85% | 170000 | 410000 | 430000 | 530000 | 10.13 ± 0.09 | 4.3 ± 0.2 × 10^5 M^−1 | 5.3 ± 0.2 × 10^5 M^−1
4 | COc1cc(C(=O)Nc2ccc(N)c(Cl)c2)cc(OC)c1OC [Compound 4] | 87.99% | 230000 | 230000 | 210000 | 130000 | 5.02 ± 0.03 | 2.1 ± 0.2 × 10^5 M^−1 | 1.3 ± 0.2 × 10^5 M^−1
5 | COc1cc(C(=O)Nc2cc(N)ccc2Cl)cc(OC)c1OC [Compound 5] | 72.56% | 270000 | 100000 | 130000 | 230000 | 30.02 ± 0.02 | 1.3 ± 0.2 × 10^5 M^−1 | 2.3 ± 0.2 × 10^5 M^−1
6 | COc1cc(C(=O)Nc2ccc(N)nc2)cc(OC)c1OC [Compound 6] | 50.44% | 400000 | 130000 | 250000 | 480000 | 0.99 ± 0.01 | 2.5 ± 0.2 × 10^5 M^−1 | 4.8 ± 0.2 × 10^5 M^−1
7 | COc1cc(OC)cc(C(=O)Nc2ccc(N)nc2)c1 [Compound 7] | 66.89% | 410000 | 210000 | 340000 | 230000 | 3.02 ± 0.09 | 3.4 ± 0.2 × 10^5 M^−1 | 2.3 ± 0.2 × 10^5 M^−1
8 | COc1ccc(C(=O)Nc2ccc(N)nc2)cc1OC [Compound 8] | 56.58% | 250000 | 240000 | 310000 | 350000 | 10.59 ± 0.06 | 3.1 ± 0.2 × 10^5 M^−1 | 3.5 ± 0.2 × 10^5 M^−1
9 | COc1cccc(C(=O)Nc2ccc(N)nc2)c1 [Compound 9] | 64.89% | 390000 | 120000 | 390000 | 150000 | 56.05 ± 0.08 | 3.9 ± 0.2 × 10^5 M^−1 | 1.5 ± 0.2 × 10^5 M^−1
10 | COc1cc(OC)cc(C(=O)Nc2cnc(N)nc2)c1 [Compound 10] | 70.11% | 260000 | 70000 | 110000 | 470000 | 19.2 ± 0.01 | 1.1 ± 0.2 × 10^5 M^−1 | 4.7 ± 0.2 × 10^5 M^−1
11 | COc1cccc(C(=O)Nc2cnc(N)nc2)c1 [Compound 11] | 54.54% | 120000 | 310000 | 260000 | 250000 | 55.32 ± 0.02 | 2.6 ± 0.2 × 10^5 M^−1 | 2.5 ± 0.2 × 10^5 M^−1
12 | COc1cc(/C=C/C(=O)Nc2cnc(N)nc2)cc(OC)c1OC [Compound 12] | 60.11% | 210000 | 280000 | 150000 | 210000 | 26.01 ± 0.02 | 1.5 ± 0.2 × 10^5 M^−1 | 2.1 ± 0.2 × 10^5 M^−1
13 | COc1cc(/C=C/C(=O)Nc2ccc(N)cc2)cc(OC)c1OC [Compound 13] | 49.9% and 49.89% | 190000 | 290000 | 400000 | 340000 | 0.89 ± 0.07 | 4.0 ± 0.2 × 10^5 M^−1 | 3.4 ± 0.2 × 10^5 M^−1
14 | COc1cc(NC(=O)/C=C/c2cc(OC)c(OC)c(OC)c2)ccc1N [Compound 14] | 43.85% | 490000 | 290000 | 890000 | 420000 | 0.97 ± 0.02 | 8.9 ± 0.2 × 10^5 M^−1 | 4.2 ± 0.2 × 10^5 M^−1
15 | COc1cc(/C=C/C(=O)Nc2ccc(N)nc2)cc(OC)c1OC [Compound 15] | 68.82% | 190000 | 230000 | 310000 | 240000 | 12.01 ± 0.01 | 3.1 ± 0.2 × 10^5 M^−1 | 2.4 ± 0.2 × 10^5 M^−1
16 | COc1cc(/C=C/C(=O)Nc2ccc(Cl)c(N)c2)cc(OC)c1OC [Compound 16] | 57.77% | 130000 | 310000 | 270000 | 380000 | 0.88 ± 0.02 | 2.7 ± 0.2 × 10^5 M^−1 | 3.8 ± 0.2 × 10^5 M^−1
17 | CN(Cc1cnc2nc(N)nc(N)c2n1)c1ccc(C(=O)N[C@@H](CCC(=O)O)C(=O)O)cc1 [MTX, methotrexate, reference compound] | 100% | – | – | – | – | – | – | –
18 | COc1cc(Cc2cnc(N)nc2N)cc(OC)c1OC [TMP, 2,4-diamino-5-(3,4,5-trimethoxybenzyl) pyrimidine, reference compound] | 100% | – | – | – | – | – | – | –
